# Data: PMC9816242, “Human metabolism and excretion kinetics of benzotriazole UV stabilizer UV-327 after single oral administration” (Archives of Toxicology, 2022)
# What was measured:
# [1] = in vivo, po; cited from earlier work
# [2] = parameters: method as in Sommer et al. [2020]; settings: oral administration, ref Sommer et al. [2020]; cited from earlier work
# clinical [3] = settings: for form present in urine (conjugated/unconjugated): urine processed with and without enzymatic hydrolysis; for relative urinary share of the amount recovered within 72 h: % of the dose recovered in urine within 72 h; for t1/2 (elimination half-life, renal excretion): from mean excretion curves
# Procedure: Enzymatic hydrolysis was performed at 37 °C for 16 h using β-glucuronidase/arylsulfatase from H. pomatia. The analytes and internal standards were extracted by dispersive liquid–liquid microextraction (DLLME) with isopropanol and chloroform. […] The urinary creatinine content was determined photometrically by the Jaffé’s method (Larsen [1972]).
# Renal excretion rates (RE, in µg/h) of each analyte at a certain point in time were calculated by the following equation: RE=ci×vi/ti-ti-1
# where ci (in µg/l) is the concentration of UV-327 or its metabolites in the urine sample i, vi (in l) is the volume of the respective urine sample, ti (in h) is the elapsed time value of the sampling, and ti−1 (in h) is the elapsed time value of the previous sampling.
# Renal excretion kinetics of UV-327 and its metabolites were plotted as temporal progressions of the renal excretion rates RE at the midpoint of the respective sampling periods (ti,m in h), which were calculated as follows: ti,m=ti-1+ti-ti-1/2
# Excretion curves were prepared for each study participant and each analyte by plotting the current excretion rates against the average time of the sampling period. Mean excretion curves were then obtained by averaging the closest sampling time points and the corresponding renal excretion rates for all study participants (mean ± standard deviation (SD)). The slopes (kel, elimination rate constant) of the ln-transformed mean excretion curves were used to calculate the elimination half-lives (t1/2) as follows: t1/2=ln(2)/kel
# By summing the molar excreted amounts of UV-327 and its metabolites, the cumulative excreted amount of each analyte (in µmol) was calculated for each study participant: ∑i=0nci×vi/M
# Furthermore, urinary excretion factors (FUE) as UV-327 dose equivalents (as percentages) were calculated to express the total excretion of UV-327 and its metabolites in urine after 24 h, 48 h, and 72 h: FUE=CEi/MD×100
# CEi is the amount of the respective analyte excreted after 24 h, 48 h, and 72 h (in µmol) and MD is the ingested amount of UV-327 (in µmol).
# The shares of conjugation of UV-327 and its metabolites were determined by correlation of the urinary excretion rates obtained with and without the performance of enzymatic hydrolysis. The slope of the linear fit describes the percentage of the unconjugated form of the respective analyte.
# [4] = UV-327 and metabolites in plasma of one volunteer after single oral administration of UV-327; settings: n = 1; AUC plasma / AUC blood per method
# Procedure: (§1) For the determination of potential background exposure, one blood and one urine sample of each participant were collected prior to the oral administration of UV-327. 14–29 mg of UV-327 were weighed directly onto a small piece of bread with butter, which was then consumed by the volunteers. Samples of urine and blood were then collected up to 72 h post-application. The participants collected all urine voids in separate containers. The sampling times and volumes of each sample were recorded. The urine samples were aliquoted and stored at − 50 °C until analysis. 9 ml of blood were drawn from peripheral veins at 2 h, 4 h, 6 h, 8 h, 10 h, 24 h, 34 h, 48 h, and 72 h after exposure and collected in EDTA-Monovettes®. […] Both blood and plasma samples were stored at − 50 °C until analysis.
# (§2) Stock solutions of each analyte and internal standard (200 mg/l) were prepared in acetone. For calibration, an analyte spiking solution was prepared in a mixture of acetonitrile and aqueous 0.9% NaCl solution (v/v, 1:1), which contained 500 µg/l of each metabolite. For the determination of UV-327, two analyte spiking solutions were prepared, containing 2 mg/l or 40 mg/l of UV-327 in a mixture of acetonitrile and 0.9% NaCl solution (v/v, 1:1). The internal standard spiking solution contained 20 mg/l of D20-UV-327 and 1 mg/l each of D6-UV-327-4-mcx, D6-UV-327-4-mOH, D12-UV-327-4 + 6-diOH, and D6-UV-327-4-mOH-6-mcx. For derivatization, a solution containing 5% (v/v) TSIM in toluene was freshly prepared for each analytical run. Calibration standards were prepared by spiking human plasma with various volumes of the analyte spiking solutions. An eight-point calibration curve in the range of 0.5–25 µg/l was applied for the determination of the metabolites, except for UV-327-4-mOH-6-mcx, for which the calibration range was set to 2–100 µg/l due to higher limits of detection and quantitation. For the determination of UV-327, a nine-point calibration curve in the range of 10–2000 µg/l was applied. A reagent blank sample, containing water instead of plasma, was included in each analytical run. […]
# [5] = UV-327 and metabolites in whole blood of volunteers after single oral administration of UV-327; settings: for share of the total amount of all analytes at the time point of maximum concentration: blood, UV-327 equivalents at cmax; for time after which mean blood level was below LOD / cmax (maximum blood level): whole blood; for time after which mean blood level was below LOD: single oral 0.3 mg/kg UV-327; for cmax (maximum blood level): single oral 0.3 mg/kg body weight UV-327, n = 3, mean ± SD
# Procedure: (§3) The administered dose of UV-327 was calculated with respect to an adequate distance from the no observed adverse effect level (NOAEL) determined in toxicological studies. […] As a result, 0.3 mg of UV-327/kg body weight was administered to each participant.
# (§4) For the determination of potential background exposure, one blood and one urine sample of each participant were collected prior to the oral administration of UV-327. 14–29 mg of UV-327 were weighed directly onto a small piece of bread with butter, which was then consumed by the volunteers. Samples of urine and blood were then collected up to 72 h post-application. The participants collected all urine voids in separate containers. The sampling times and volumes of each sample were recorded. The urine samples were aliquoted and stored at − 50 °C until analysis. 9 ml of blood were drawn from peripheral veins at 2 h, 4 h, 6 h, 8 h, 10 h, 24 h, 34 h, 48 h, and 72 h after exposure and collected in EDTA-Monovettes®. Additional blood samples were collected from one subject 14 h, 28 h, and 58 h after exposure. This study participant donated two blood samples at each point in time; one blood sample was centrifuged to obtain plasma samples. Both blood and plasma samples were stored at − 50 °C until analysis.
# (§5) Whole blood samples were prepared, processed, and analyzed according to a previously published method (Fischer and Göen [2022]). Proteins and cellular components were precipitated by the addition of acetonitrile. After centrifugation, the supernatants were diluted with water and ammonium acetate buffer. For analyte extraction, chloroform was added. The extracts were evaporated to dryness, followed by the addition of toluene and derivatization with both BSA/TCMS and TSIM. LODs ranged from 0.02 to 0.36 µg/l. […] Mean relative recovery rates ranged from 91% to 118%.
# (§6) The blood samples of one study participant were additionally processed with the addition of β-glucuronidase/arylsulfatase from H. pomatia and incubation at 37 °C for 16 h to examine potential conjugation of UV-327 and its metabolites to glucuronide/sulfate.
# (§7) A TRACE 1310 gas-chromatographic system equipped with a TriPlus RSH autosampler and a split/splitless injector was used for the analysis of the urine, blood, and plasma samples. The gas-chromatographic system was coupled to a TSQ 9000 triple–quadrupole mass spectrometer equipped with an advanced electron ionization (AEI) source (Thermo Fisher Scientific Inc., Waltham, USA). Chromatographic separation was performed on a (5% phenyl)-methylpolysiloxane low-bleed capillary column (HP-5msUI, 60 m × 250 µm × 0.25 µm, Agilent Technologies, Inc., Santa Clara, USA) at a constant flow rate of 1 ml/min using helium as a carrier gas. Total analysis time was 44 min. The GC–MS/MS equipment and parameter-specific settings were used as described in earlier publications for the analysis of urine (Fischer and Göen [2021]) and blood samples (Fischer and Göen [2022]). Plasma samples were analyzed using the same parameter-specific settings as for the analysis of blood samples.
# (§8) Mean concentration–time curves in blood were obtained by plotting the mean blood levels against time. The elimination half-lives (t1/2) were calculated as described above. […] For this purpose, UV-327 equivalents (as percentages) were calculated as follows: ∑i=0ncmax/M×MUV-327×100
# human estrogen receptor = tested on: human estrogen receptor; parameters: method as in Fent et al. [2014]; Sakuragi et al. [2021]; settings: ref Fent et al. [2014]; Sakuragi et al. [2021]; cited from earlier work
# human androgen receptor = tested on: human androgen receptor; parameters: method as in Fent et al. [2014]; Sakuragi et al. [2021]; settings: ref Fent et al. [2014]; Sakuragi et al. [2021]; cited from earlier work
# [6] = tested on: thyroid hormone receptors; parameters: method as in Nagayoshi et al. [2015]; settings: ref Nagayoshi et al. [2015]; cited from earlier work
# human serum albumin = tested on: human serum albumin; parameters: method as in Zhuang et al. [2016]; settings: ref Zhuang et al. [2016]; cited from earlier work
# [7] = parameters: method as in Cantwell et al. [2015]; settings: ref Cantwell et al. [2015]; cited from earlier work
# clinical [8] = settings: both, human, whole blood, po, 0.3 mg/kg
# Procedure: as §3, §4, §5, §6, §7, §8
# clinical [9] = settings: human, plasma, po, 0.3 mg/kg
# Procedure: as §1, §2
# rats [10] = settings: ref Ema et al. [2006]; cited from earlier work
# rats [11] = settings: ref Ema et al. [2008]; cited from earlier work
# rats [12] = settings: especially male, ref Ema et al. [2008]; cited from earlier work
# beagle dogs = settings: 90-day feeding study, ref CIBA AG [1970]; cited from earlier work
# [13] = in vitro; ref Fischer et al. [2020]; cited from earlier work
# [14] = urine of one participant, with vs without enzymatic hydrolysis
# [15] = urine up to 72 h, n = 3, mean ± SD
# [16] = both, human, in vivo, po, 0.3 mg/kg
compound,measurement,setting,value
CCCOC(=O)c1ccc(O)cc1 [propyl paraben],time to maximum serum level,[1],1.4 ± 1.1 h
"CN(C)CCc1ccc(O)cc1 [N,N-dimethyltyramine]",time to plasma peak level,[2],30 to 90 min
2-(5-chloro-benzotriazol-2-yl)-4-(1-hydroxy-2-methylpropyl)-6-(tert-butyl)phenol [UV-327-4-mOH],FUE after 24 h (urinary excretion factor),"clinical [3]; human, in vivo",0.0016 ± 0.0004%
same,FUE after 48 h (urinary excretion factor),"clinical [3]; human, in vivo",0.0022 ± 0.0007%
same,FUE after 72 h (urinary excretion factor),"clinical [3]; human, in vivo",0.0026 ± 0.0011%
same,REmax (maximum renal excretion rate),"clinical [3]; human, in vivo, po, 0.3 mg/kg",0.032 ± 0.012 µg/h
same,tmax (time point of maximum renal excretion rate),"clinical [3]; human, in vivo, po, 0.3 mg/kg",13.5 ± 0.05 h
same,Share of conjugation,clinical [3]; [14],100%
same,form present in urine (conjugated/unconjugated),clinical [3],only present in their conjugated forms
same,Cumulative excreted amount,clinical [3]; [15],0.0016 ± 0.0009 µmol
same,relative urinary share of the amount recovered within 72 h,clinical [3]; urine,9.2%
same,"t1/2 (elimination half-life, renal excretion)","clinical [3]; urine, n = 3",26.7 h
same,plasma to blood ratio,[4],1.5 to 1.6
same,share of the total amount of all analytes at the time point of maximum concentration,[5],0.04%
same,time after which mean blood level was below LOD,[5],72 h
same,cmax (maximum blood level),[5],0.26 ± 0.10 µg/L
2-(5-chloro-benzotriazol-2-yl)-6-(1-hydroxy-2-methylpropyl)-4-(tert-butyl)phenol [UV-327-6-mOH],FUE after 24 h (urinary excretion factor),"clinical [3]; human, in vivo",0.0034 ± 0.0006%
same,FUE after 48 h (urinary excretion factor),"clinical [3]; human, in vivo",0.0046 ± 0.0010%
same,FUE after 72 h (urinary excretion factor),"clinical [3]; human, in vivo",0.0049 ± 0.0013%
same,REmax (maximum renal excretion rate),"clinical [3]; human, in vivo, po, 0.3 mg/kg",0.068 ± 0.06 µg/h
same,tmax (time point of maximum renal excretion rate),"clinical [3]; human, in vivo, po, 0.3 mg/kg",8.7 ± 0.21 h
same,Share of conjugation,clinical [3]; [14],100%
same,form present in urine (conjugated/unconjugated),clinical [3],only present in their conjugated forms
same,Cumulative excreted amount,clinical [3]; [15],0.0030 ± 0.0011 µmol
same,relative urinary share of the amount recovered within 72 h,clinical [3]; urine,17.2%
same,"t1/2 (elimination half-life, renal excretion)","clinical [3]; urine, n = 3",13.9 h
same,plasma to blood ratio,[4],1.5 to 1.6
same,share of the total amount of all analytes at the time point of maximum concentration,[5],0.04%
same,time after which mean blood level was below LOD,[5],48 h
same,cmax (maximum blood level),[5],0.27 ± 0.10 µg/L
"CC(C)(C)c1cc(-n2nc3ccc(Cl)cc3n2)c(O)c(C(C)(C)C)c1 [UV-327, 2-(5-chloro-benzotriazol-2-yl)-4,6-di-(tert-butyl)phenol]",Cumulative excreted amount,"clinical [3]; both, human, in vivo",0.0016 ± 0.0007 µmol
same,FUE after 24 h (urinary excretion factor),"clinical [3]; both, human, in vivo",0.0015 ± 0.0004%
same,FUE after 48 h (urinary excretion factor),"clinical [3]; both, human, in vivo",0.0023 ± 0.0007%
same,FUE after 72 h (urinary excretion factor),"clinical [3]; both, human, in vivo",0.0026 ± 0.0009%
same,half-life,"clinical [3]; both, human, in vivo",1090 min
same,share of the total 72 h urinary amount (UV-327 and its metabolites) excreted within 24 h,"clinical [3]; both, human, in vivo",61%
same,share of the total 72 h urinary amount (UV-327 and its metabolites) excreted within 48 h,"clinical [3]; both, human, in vivo",88%
same,REmax (maximum renal excretion rate),clinical [3]; [16],0.026 ± 0.007 µg/h
same,Tmax,clinical [3]; [16],13.5 ± 0.05 h
same,Share of conjugation,"clinical [3]; human, in vivo",16%
same,unconjugated form in urine,"clinical [3]; human, in vivo",84%
same,relative urinary share of the amount recovered within 72 h,clinical [3]; urine,9.0%
same,activity against human estrogen receptor,human estrogen receptor,no activity
same,activity against human androgen receptor,human androgen receptor,no activity
same,activity against thyroid hormone receptors,[6],no activity
same,binding to human serum albumin,human serum albumin,found to bind to human serum albumin by forming hydrogen bonds
same,Log Kow,[7],6.75
same,Cmax,clinical [8],632 ± 114 ng/mL
same,Tmax,clinical [8],6 h
same,concentration at 24 h,clinical [8],103 ± 24 ng/mL
same,concentration at 72 h,clinical [8],27 ± 5 ng/mL
same,Tmax,clinical [9],6 h
same,oral LD50,rats [10],> 5000 mg/kg body weight
same,reproductive toxicity,rats [11],did not cause reproductive
same,liver findings after repeated oral administration,rats [12],"increased liver weights, histopathological changes in hepatic tissue, and alterations in liver-specific blood parameters"
same,NOAEL,beagle dogs,30 mg/kg/day
same,extent of metabolism in human liver microsomes,[13],only moderately metabolized
same,conjugation in blood (with vs without enzymatic hydrolysis),"[5]; blood of one participant, β-glucuronidase/arylsulfatase",not present as conjugates in blood
same,share of the total amount of all analytes at the time point of maximum concentration,[5],99.9%
"2-(5-chloro-benzotriazol-2-yl)-4,6-di-(1-hydroxy-2-methylpropyl)phenol [UV-327-4 + 6-diOH]",FUE after 24 h (urinary excretion factor),"clinical [3]; human, in vivo",0.0104 ± 0.0022%
same,FUE after 48 h (urinary excretion factor),"clinical [3]; human, in vivo",0.0156 ± 0.0027%
same,FUE after 72 h (urinary excretion factor),"clinical [3]; human, in vivo",0.018%
same,REmax (maximum renal excretion rate),"clinical [3]; human, in vivo, po, 0.3 mg/kg",0.214 ± 0.058 µg/h
same,tmax (time point of maximum renal excretion rate),"clinical [3]; human, in vivo, po, 0.3 mg/kg",10.6 ± 0.08 h
same,Share of conjugation,clinical [3]; [14],100%
same,form present in urine (conjugated/unconjugated),clinical [3],only present in their conjugated forms
same,Cumulative excreted amount,clinical [3]; [15],0.0121 ± 0.0051 µmol
same,FUE after 72 h (urinary excretion factor),"clinical [3]; urine, % of ingested UV-327 dose, 72 h, n = 3, mean ± SD",0.0183 ± 0.0030%
same,relative urinary share of the amount recovered within 72 h,clinical [3]; urine,64.5%
same,"t1/2 (elimination half-life, renal excretion)","clinical [3]; urine, n = 3",33.0 h
same,detection in blood,[5]; blood samples up to 72 h post-exposure,not detected in blood
